Assay results reported in ChEMBL document CHEMBL1201862, “PubChem BioAssay data set” (2004).
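48-hour exposure; five concentrations; linearly interpolated endpoints. GI50: concentration for 50% inhibition of growth.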 The source made the active and inactive calls. No stated cut-off is given here; in the data, active = GI50 up to about 1.1 µM and inactive = higher.

Assays:
Test in all cases: NCI-60 cell line screen, 48 h
SNB-19 = test system: SNB-19
OVCAR-8 = test system: OVCAR-8
OVCAR-4 = test system: OVCAR-4
HCT-15 = test system: HCT-15
RPMI-8226 = test system: RPMI-8226
NCI-H226 = test system: NCI-H226
SN12C = test system: SN12C
SNB-75 = test system: SNB-75
MOLT-4 = test system: MOLT-4
HL-60 = test system: HL-60
LOX IMVI = test system: LOX IMVI
RXF 393 = test system: RXF 393
CAKI-1 = test system: CAKI-1
A498 = test system: A498

Row | Compound | GI50 (SNB-19) | GI50 (OVCAR-8) | GI50 (OVCAR-4) | GI50 (HCT-15) [µM] | GI50 (RPMI-8226) | GI50 (NCI-H226) | GI50 (SN12C) | GI50 (SNB-75) | GI50 (MOLT-4) | GI50 (HL-60) | GI50 (LOX IMVI) | GI50 (RXF 393) | GI50 (CAKI-1) | GI50 (A498)
1 | CCOc1cc2c[n+](C)c3c4cc(OC)c(OC)cc4ccc3c2cc1OC | > 100 µM (inactive) | 17.7 µM (inactive) | > 100 µM (inactive) | > 100 | > 100 µM (inactive) | > 100 µM (inactive) | > 100 µM (inactive) | > 100 µM (inactive) | > 100 µM (inactive) | 97.5 µM (inactive) | > 100 µM (inactive) | > 100 µM (inactive) | > 100 µM (inactive) | –
2 | Cc1cccc2[n+]1[C@H]1[C@H]([C@@H]3O[C@H]1c1ccccc13)[S+]([O-])N2 (stereo partly specified) | 37.9 µM (inactive) | 9.98 µM (inactive) | – | – | 10.8 µM (inactive) | – | – | 58.5 µM (inactive) | 38.2 µM (inactive) | 24.4 µM (inactive) | 25.9 µM (inactive) | 89.1 µM (inactive) | – | 93.3 µM (inactive)
3 | CC(C)(C)c1cc(Cc2ccc([N+](C)(C)C)cc2)c(O)c(C(C)(C)C)c1 | 12.9 µM (inactive) | 17.4 µM (inactive) | 30.1 µM (inactive) | > 100 | 14.8 µM (inactive) | – | 14.9 µM (inactive) | 9.2 µM (inactive) | 11.8 µM (inactive) | 2.41 µM (inactive) | 16.4 µM (inactive) | 16.4 µM (inactive) | 63.8 µM (inactive) | 53 µM (inactive)
4 | Cc1ccc(C)c(N2C(=O)C(=O)C(c3nc4ccccc4s3)C(=O)C2=O)c1 | > 100 µM (inactive) | > 100 µM (inactive) | > 100 µM (inactive) | > 100 | > 100 µM (inactive) | > 100 µM (inactive) | > 100 µM (inactive) | > 100 µM (inactive) | > 100 µM (inactive) | > 100 µM (inactive) | > 100 µM (inactive) | > 100 µM (inactive) | > 100 µM (inactive) | > 100 µM (inactive)
5 | COc1cc(C2C(C(=O)Nc3ccc([N+](=O)[O-])cc3)=C(C)NC(C)=C2C(=O)Nc2ccc([N+](=O)[O-])cc2)ccc1O | 25.7 µM (inactive) | 19.9 µM (inactive) | 27 µM (inactive) | 19.1 | 24.3 µM (inactive) | 24.2 µM (inactive) | 18.4 µM (inactive) | 30.5 µM (inactive) | 19.9 µM (inactive) | 0.515 µM (active) | 14.6 µM (inactive) | 19.5 µM (inactive) | 31 µM (inactive) | 36.7 µM (inactive)
6 | COc1ccc([C@@H]2OC(=O)C3C2C(=O)O[C@H]3c2ccc(OC)c(OC)c2)cc1OC (stereo partly specified) | > 100 µM (inactive) | > 100 µM (inactive) | > 100 µM (inactive) | > 100 | > 100 µM (inactive) | > 100 µM (inactive) | > 100 µM (inactive) | 81.5 µM (inactive) | > 100 µM (inactive) | > 100 µM (inactive) | > 100 µM (inactive) | > 100 µM (inactive) | – | > 100 µM (inactive)
7 | CN(C)C(c1ccccc1)C(O)c1ccccc1 (stereo unspecified) | > 100 µM (inactive) | – | – | > 100 | > 100 µM (inactive) | > 100 µM (inactive) | > 100 µM (inactive) | 75.5 µM (inactive) | > 100 µM (inactive) | > 100 µM (inactive) | > 100 µM (inactive) | > 100 µM (inactive) | > 100 µM (inactive) | > 100 µM (inactive)
8 | Cc1cccc(C)c1NC(=O)C(=O)CC(=O)c1cccc([N+](=O)[O-])c1 | > 100 µM (inactive) | > 100 µM (inactive) | > 100 µM (inactive) | > 100 | > 100 µM (inactive) | > 100 µM (inactive) | > 100 µM (inactive) | > 100 µM (inactive) | > 100 µM (inactive) | > 100 µM (inactive) | – | – | > 100 µM (inactive) | > 100 µM (inactive)
9 | CC(Oc1ccc2c(=O)cc(-c3ccccc3)oc2c1)C(=O)O (stereo unspecified) | > 100 µM (inactive) | > 100 µM (inactive) | > 100 µM (inactive) | – | – | > 100 µM (inactive) | > 100 µM (inactive) | > 100 µM (inactive) | > 100 µM (inactive) | > 100 µM (inactive) | > 100 µM (inactive) | > 100 µM (inactive) | > 100 µM (inactive) | > 100 µM (inactive)
10 | Cc1ccc(S(=O)(=O)c2ccc(NC(=O)SCCC(=O)O)cc2)cc1 | > 100 µM (inactive) | > 100 µM (inactive) | > 100 µM (inactive) | > 100 | > 100 µM (inactive) | > 100 µM (inactive) | > 100 µM (inactive) | 17.8 µM (inactive) | > 100 µM (inactive) | > 100 µM (inactive) | > 100 µM (inactive) | > 100 µM (inactive) | > 100 µM (inactive) | > 100 µM (inactive)
11 | CCOC(=O)C1=C(C(=O)OCC)C2c3ccccc3C=CN2C(C(=O)OCC)=C(SC)S1 (stereo unspecified) | > 100 µM (inactive) | > 100 µM (inactive) | – | 79.8 | 17.8 µM (inactive) | > 100 µM (inactive) | 98.4 µM (inactive) | > 100 µM (inactive) | 21.6 µM (inactive) | 25.9 µM (inactive) | 97.3 µM (inactive) | 73.1 µM (inactive) | > 100 µM (inactive) | –
12 | O=C(N/N=C(/c1nc2ccc(Cl)cc2[nH]c1=O)C(O)c1ccc(Cl)cc1Cl)c1ccncc1 (stereo unspecified) | > 100 µM (inactive) | > 100 µM (inactive) | – | > 100 | > 100 µM (inactive) | > 100 µM (inactive) | – | > 100 µM (inactive) | > 100 µM (inactive) | > 100 µM (inactive) | > 100 µM (inactive) | > 100 µM (inactive) | > 100 µM (inactive) | > 100 µM (inactive)
13 | N#C/C(=C\c1cc2ccccc2c2ccccc12)c1ccccc1 | 8.99 µM (inactive) | 30 µM (inactive) | 11.2 µM (inactive) | 5.24 | 6.59 µM (inactive) | 43.8 µM (inactive) | 9.59 µM (inactive) | 2.31 µM (inactive) | 7.26 µM (inactive) | 3.04 µM (inactive) | 9.51 µM (inactive) | 5.66 µM (inactive) | 7.76 µM (inactive) | 9.18 µM (inactive)
14 | NC(=S)N/N=C(\C(=O)Nc1cccc([N+](=O)[O-])c1)c1nc2ccc([N+](=O)[O-])cc2nc1O | > 100 µM (inactive) | > 100 µM (inactive) | > 100 µM (inactive) | 29.4 | > 100 µM (inactive) | > 100 µM (inactive) | – | > 100 µM (inactive) | 18.2 µM (inactive) | 19.9 µM (inactive) | 34.7 µM (inactive) | > 100 µM (inactive) | – | > 100 µM (inactive)
15 | COc1ccc(NC(=O)COC(=O)c2cccc3c(=O)c4ccccc4[nH]c23)cc1 | 30.1 µM (inactive) | 22.4 µM (inactive) | 17.9 µM (inactive) | – | – | 23.1 µM (inactive) | 27.5 µM (inactive) | 21 µM (inactive) | 14.2 µM (inactive) | 13.1 µM (inactive) | 15 µM (inactive) | 15.3 µM (inactive) | 19.5 µM (inactive) | 11.3 µM (inactive)
16 | COc1ccc(S(=O)(=O)NNS(C)(=O)=O)cc1 | > 100 µM (inactive) | > 100 µM (inactive) | > 100 µM (inactive) | > 10 | > 100 µM (inactive) | > 100 µM (inactive) | > 100 µM (inactive) | > 100 µM (inactive) | > 100 µM (inactive) | > 100 µM (inactive) | > 100 µM (inactive) | > 100 µM (inactive) | > 100 µM (inactive) | > 100 µM (inactive)
17 | CSc1nc(-c2ccccc2)nc(N2CCOCC2)[s+]1 | > 100 µM (inactive) | > 100 µM (inactive) | > 100 µM (inactive) | 37.8 | – | > 100 µM (inactive) | > 100 µM (inactive) | > 100 µM (inactive) | 26.8 µM (inactive) | 42.8 µM (inactive) | 43 µM (inactive) | 21.3 µM (inactive) | – | > 100 µM (inactive)
18 | Cc1ccc(C)c(NC(=O)CCc2nnc(S)[nH]2)c1 | > 100 µM (inactive) | > 100 µM (inactive) | > 100 µM (inactive) | 44.2 | > 100 µM (inactive) | > 100 µM (inactive) | > 100 µM (inactive) | > 100 µM (inactive) | > 100 µM (inactive) | – | > 100 µM (inactive) | > 100 µM (inactive) | > 100 µM (inactive) | > 100 µM (inactive)
19 | CN(C)CCC(CCN(C)C)=NOC(=O)c1ccccc1 | > 100 µM (inactive) | > 100 µM (inactive) | > 100 µM (inactive) | > 100 | > 100 µM (inactive) | – | > 100 µM (inactive) | > 100 µM (inactive) | > 100 µM (inactive) | > 100 µM (inactive) | – | > 100 µM (inactive) | > 100 µM (inactive) | > 100 µM (inactive)
20 | COc1ccc(CC(=O)c2cc(OC)c(OC)cc2C)cc1OC | 68.4 µM (inactive) | > 100 µM (inactive) | 29.3 µM (inactive) | 46.5 | 65.3 µM (inactive) | – | 55.1 µM (inactive) | > 100 µM (inactive) | 44.8 µM (inactive) | – | – | – | > 100 µM (inactive) | > 100 µM (inactive)
21 | COc1ccc(C2c3cc4c(cc3OC(O)(CO)C2C(=O)O)OCO4)c(OC)c1OC.COc1ccc(C2c3cc4c(cc3OC3(O)COC(=O)C23)OCO4)c(OC)c1OC (stereo unspecified) | > 100 µM (inactive) | > 100 µM (inactive) | > 100 µM (inactive) | > 100 | > 100 µM (inactive) | – | > 100 µM (inactive) | 75.2 µM (inactive) | > 100 µM (inactive) | 45 µM (inactive) | > 100 µM (inactive) | 74 µM (inactive) | 65.8 µM (inactive) | –
